Assay: Human HepG2 cell viability assay in 384 well format
Format: toxicity, cell-based
Set-up: dose 125 nL, time 70.5 hour; concentration not given beside the values
Conditions: HepG2 cells, read-out: Inhibition

Row | Compound | cytotoxicity at 70.5 h
1 | Cc1nc(C)c(C(=O)NCC(c2ccccc2Cl)N2CCOCC2)s1 (stereo not given) | 19.6%
2 | Cc1cc(C(=O)NCC(c2ccccc2Cl)N2CCOCC2)on1 (stereo not given) | -1.66%
3 | Cc1[nH]ncc1CCCNC(=O)Nc1ccc(S(C)(=O)=O)nc1 | 10.3%
4 | O=C(c1cccnc1-n1cncn1)N1CCN(CC(F)(F)F)CC1 | -0.957%
5 | Cc1nnc(NCC2(c3ccccc3)CCOCC2)c(C#N)c1C | 16.6%
6 | CNC(=O)COc1nc(C(C)(C)C)no1 | 3.09%
7 | CN(Cc1noc(C(C)(C)C)n1)CC1CCN(CCO)CC1 | -3.04%
8 | CCOCC(O)CN1CCN(C(=O)c2ccncc2)CC1 (stereo not given) | -3.55%
9 | Cc1ccc(C(=O)NCC2(O)CCOCC2)cc1F | -1.08%
10 | COc1ccccc1C1(CNc2nnc(C)c(C)c2C#N)CCCC1 | 2.69%
11 | CCN(CC(C)C#N)C(=O)CSc1ccc(C(F)(F)F)cn1 (stereo not given) | -3.1%
12 | CC(C)CC(=O)NCc1cccc(OCCN(C)C2CCOCC2)c1 | -4.5%
13 | CN1CCCN(C(=O)NCCNc2ncccc2C#N)CC1 | -2.49%
14 | CC(C)COC(=O)N1CCCN(Cc2nnc(C(C)(C)C)o2)CC1 | -4.02%
15 | CN(Cc1ccc(C#N)cc1)C(=O)c1ccnc(OC2CCC2)c1 | 16.3%
16 | Cc1ccc(CN(C)C(=O)CN2CCCCC2Cn2cncn2)o1 (stereo not given) | 17.9%
17 | CCOCC(O)CN1CCN(C(=O)c2ccsc2)CC1 (stereo not given) | 17.1%
18 | Cc1cc2n(n1)CC(CNCCNC(=O)c1ccc(F)cc1)CN2 (stereo not given) | -4.35%
19 | CC(C)c1noc(CNC2CCCN(Cc3noc(C4CC4)n3)C2)n1 (stereo not given) | -11.4%
20 | Cc1csc(CN(C)C(=O)Nc2cnn(CC3CCCO3)c2)n1 (stereo not given) | -12.7%
21 | CN1CCC(CN(C)S(=O)(=O)CC2CCCCC2)CC1 | 11.1%
22 | O=C(CC1=CCCCC1)Nc1ccc(CN2C(=O)CCC2=O)cc1 | -3.73%
23 | CC(C)N1CCC(Nc2ccn(C)n2)C1=O (stereo not given) | -3.38%
24 | CCC1c2ccccc2CCN1C(=O)c1ccc(OC)nn1 (stereo not given) | -0.324%

Row | Compound | cytotoxicity at 70.5 h
25 | Cn1ccc(C(=O)N(CC(F)F)c2cccc(Cl)c2)cc1=O | -2.11%
26 | CN1CCCC(N2CCN(c3nc4ccccn4c3C#N)CC2)C1 (stereo not given) | 11.1%
27 | CS(=O)(=O)CCN(Cc1cccc(O)c1)C1CCC(O)CC1 (stereo not given) | -4.64%
28 | CCC1c2ccccc2CCN1C(=O)c1ccnc(C(=O)OC)c1 (stereo not given) | -1.37%
29 | CN(Cc1cnn(C)c1)S(=O)(=O)N1CCCC1c1ccco1 (stereo not given) | -0.954%
30 | Cc1cnn(CC2CCCCN2C(=O)c2ccc(C#N)c(C)n2)c1 (stereo not given) | -0.947%
31 | COc1ccnc(N(C)Cc2ccccc2OC(F)(F)F)n1 | -1.49%
32 | Cc1cc(C(=O)N2CCCC(N3CCCCCC3)C2)nn1C(C)(C)C (stereo not given) | 16.8%
33 | COc1cc(C(=O)N(C)C)ccc1NC(=O)c1ccsc1 | 1.32%
34 | CN(CC1CC1)C(=O)CN1CCCC1c1cnn(C)c1 (stereo not given) | 1.65%
35 | CC(=O)Nc1nc(C(=O)NCCOc2cccc(C)c2)cs1 | -8.98%
36 | CC(=O)Nc1nc(C(=O)NCCOc2cccc(F)c2)cs1 | -17.7%
37 | CC(C)N(C)Cc1ccccc1CNc1ccc2nncn2n1 | -12%
38 | COc1ccccc1C(=O)Nc1c(C)cnn1CC1CC1 | -21.8%
39 | CCOc1ncccc1C(=O)Nc1c(C)cnn1CC1CC1 | -9.45%
40 | CN(C(=O)CN1CCCC1c1cnn(C)c1)C1(C#N)CCCCC1 (stereo not given) | -4.65%
41 | NC(=O)CCn1ccc(NC(=O)C2(c3ccc(F)cc3)CCC2)n1 | 1.99%
42 | Cc1cnn(CCC(=O)Nc2ccc(F)cc2OCC2CC2)c1 | -12.1%
43 | O=C(CCn1cncn1)Nc1ccc(F)cc1OCC1CC1 | -9.3%
44 | O=C(Cn1cnnn1)Nc1ccc(F)cc1OCC1CC1 | -13.9%
45 | CNC(=O)c1ccc(OC)c(NCc2noc(-c3cccs3)n2)c1 | -16.8%
46 | O=C(c1cccnc1)N1CCN(c2ccnc3ccsc23)CC1 | -10.7%
47 | Cc1cc(CNC(=O)NCc2cccs2)ccc1S(C)(=O)=O | -8.79%
48 | CC(CNC(=O)c1c[nH]nn1)Oc1ccccc1Br (stereo not given) | -10.7%

Row | Compound | cytotoxicity at 70.5 h
49 | CC(C)S(=O)(=O)N(C)C(=O)CCc1ccsc1 | -12%
50 | Cc1ccc(C(=O)N2CCN(c3ccnc4ccsc34)CC2)o1 | -12%
51 | CCCS(=O)(=O)N(C)C(=O)CCc1ccsc1 | 0.207%
52 | COCCOc1ccc(NCc2cccc3cn[nH]c23)cn1 | -7.69%
53 | COCCOc1ncccc1C(=O)Nc1c(C)cnn1CC1CC1 | 8.78%
54 | COCCOc1ccccc1C(=O)Nc1c(C)cnn1CC1CC1 | -6.01%
55 | Cc1cccc(OC2CCN(c3ncc(C#N)cc3Cl)CC2)n1 | -6.22%
56 | CN(Cc1ccccc1)C(=O)CN1CCCC1c1cnn(C)c1 (stereo not given) | -10.2%
57 | Cc1ccc(-c2nnc(C(C)NCCn3cc(C)cn3)o2)cc1 (stereo not given) | -14.8%
58 | CCn1c(C)cc(C(=O)NCc2cccc(S(=O)(=O)NC)c2)c1C | -4.15%
59 | Cc1cc(SC(C)(C)C)ccc1NC(C)C(=O)NC(N)=O (stereo not given) | 9.69%
60 | CCc1noc(CS(=O)(=O)C/C=C/c2ccccc2)n1 | -10.8%
61 | CCn1c(C)cc(C(=O)NCc2ccc(CS(C)(=O)=O)cc2)c1C | -7.81%
62 | Fc1cccc(NCc2ncc[nH]2)c1 | -8.15%
63 | CNC(=O)c1cccc(CCNC(=O)N2CCc3ccccc3C2)c1 | -1.68%
64 | CC(C)c1nc(S(=O)(=O)N(C)c2ccc(F)cc2)c[nH]1 | -7.45%
65 | Cc1nccc(CNS(=O)(=O)N2CCCC2c2ccc(C)o2)n1 (stereo not given) | -9.86%
66 | Cc1noc(CCCNS(=O)(=O)N2CCCC2c2ccco2)n1 (stereo not given) | -9.07%
67 | Cc1noc(CCNS(=O)(=O)N2CCCC2c2ccc(C)o2)n1 (stereo not given) | 9.73%
68 | Cc1cc(SC(C)(C)C)ccc1NC(=O)CNC(N)=O | -9.26%
69 | Cc1cccc(I)c1C(=O)NCc1ncc[nH]1 | -10.8%
70 | COc1cc(C(=O)N(C)Cc2cc(C(=O)O)c(C)o2)cc(OC)c1OC | -7.77%
71 | Cc1cccc(C(=O)N2CCCC2c2c(C)n[nH]c2C)c1 (stereo not given) | -2.31%
72 | Cc1cnn(CCNC(C)c2nnc(-c3cccc(Cl)c3)o2)c1 (stereo not given) | -6.22%

Row | Compound | cytotoxicity at 70.5 h
73 | Cc1cccc(C(=O)Nc2ccc(OC3CCOCC3)c(C)c2)n1 | 15.2%
74 | CC(C)c1nc(S(=O)(=O)N(C)c2cc(F)ccc2F)c[nH]1 | -4.89%
75 | CC(CC#N)N(C)Cc1ccccc1Cl (stereo not given) | -7.77%
76 | CC(CCNC(=O)NCCc1ccncc1)c1ccccc1 (stereo not given) | -0.345%
77 | O=S(=O)(CCc1ccccc1)Cc1nc(C2CC2)no1 | -13%
78 | C=C(C)CN(CC)Cc1nc(C2CC2)no1 | -5.54%
79 | O=C(Cn1cncn1)NCC1(O)CCCc2ccccc21 (stereo not given) | 23.9%
80 | COc1ccc(NC(=O)C2CC2)cc1OCc1cccnc1 | 23%
81 | Cc1noc(C)c1CC(=O)NCC(C(C)C)N1CCOCC1 (stereo not given) | -10.6%
82 | CN(Cc1ccco1)C(=O)c1ccc(=O)n(C)c1 | -6.1%
83 | Cc1cccc(OCC(=O)N(Cc2ccncc2)C2CC2)c1 | -0.457%
84 | COc1ccccc1C(C)N1CCN(S(=O)(=O)N(C)C)CC1 (stereo not given) | 4.97%
85 | COc1ccccc1C1(CNc2ncc(S(N)(=O)=O)s2)CC1 | -6.5%
86 | NC(=O)C1CCN(Cc2ccc(S(=O)(=O)N3CCCC3)o2)CC1 | -3.5%
87 | O=C(CCN1CCCCC1c1cc2ccccc2[nH]1)N1CCOCC1 (stereo not given) | 8.08%
88 | O=C(Nc1ccccc1Oc1cccc(F)c1)NC1CCS(=O)(=O)C1 (stereo not given) | 2.26%
89 | Cc1cc(CNC(=O)c2ccc(F)c(COCC3CC3)c2)no1 | -9.69%
90 | Cc1cc(C(=O)Nc2ccc(N3CCCC3)cn2)ccc1-n1cncn1 | -1.17%
91 | COCCC1(CNC(=O)NC2CCCN(C)C2)CC1 (stereo not given) | 0.563%
92 | CCc1nsc(N2CCc3sccc3C2)n1 | -2.5%
93 | O=C(c1ccc(O)c(Cl)c1)N(Cc1ccncc1)C1CC1 | -2.89%
94 | COC(C)(C)c1noc(C2(C#N)CCCCC2)n1 | -0.329%
95 | Cn1cc(CCNC(=O)N2CCCc3c(F)cccc32)cn1 | 3.99%
96 | CC(NCC(=O)Nc1ccc(N2CCCCCC2)cc1)c1cccs1 (stereo not given) | -8.9%

Row | Compound | cytotoxicity at 70.5 h
97 | CN(CC(=O)NCC(=O)Nc1ccc(F)cc1)Cc1cccs1 | -20.9%
98 | COc1ccc(Oc2cc(CN)ccn2)cc1 | 2.32%
99 | CC(NCC(=O)NCC(=O)Nc1ccc(F)cc1)c1cccs1 (stereo not given) | -17.8%
100 | CN1CC(C(=O)NCCc2ccc3c(c2)OCCO3)CC1=O (stereo not given) | -1.68%
101 | Cc1nnc(NC(=O)NCCCN2CCC(C(N)=O)CC2)s1 | -8.8%
102 | CCC(C)C(=O)Nc1ccc(CCN2CCOCC2)cc1 (stereo not given) | -18.2%
103 | NC(=O)C1CCN(CCCNC(=O)Nc2nccs2)CC1 | -25.9%
104 | NC(=O)NC(CC(=O)N1CCc2sccc2C1)c1cccc(Br)c1 (stereo not given) | -18.1%
105 | CN1CC(C(=O)NCCc2ccc(F)c(Br)c2)CC1=O (stereo not given) | -8.01%
106 | Cn1ncc2c1CCCC2NCc1ccc(OCc2cccnc2)cc1 (stereo not given) | -14.4%
107 | O=C(CNc1ccc(OC2CCOC2)cc1)NCc1ccc(F)cc1 (stereo not given) | -10.9%
108 | COc1cc(F)c(NCc2nc3ccccc3n2C)cc1OC | -15.9%
109 | COCCOc1ccc(F)cc1NCc1nc2ccccc2n1C | 11.4%
110 | Cc1ccc(CCc2nc(C3CCOC3)no2)o1 (stereo not given) | 6.82%
111 | CC(=O)N1CCCC(C(=O)NCCc2ccc(F)c(Br)c2)C1 (stereo not given) | -9.08%
112 | CC(=O)N(C)C1CCCc2nc(C)sc21 (stereo not given) | -11%
113 | c1cnn(C2CN(Cc3noc(C4CC4)n3)C2)c1 | -7.11%
114 | O=C(NCCn1ccnc1)c1csc2c1CCCC2 | -10.8%
115 | Cc1cc(CNC(=O)CCc2ccc(S(N)(=O)=O)cc2)no1 | -11.1%
116 | COCCCNC(=O)C1(NC(=O)c2ccc3[nH]ncc3c2)CCCC1 | -15.2%
117 | CC(C)CNC(=O)CSc1nnc(OC(C)C)s1 | -10.7%
118 | O=C(NC1(C(=O)NC2CCCC2)CCCC1)c1ccc2[nH]ncc2c1 | -8.68%
119 | CC(C)c1nc(C2CCCNC2)no1 (stereo not given) | 14.1%
120 | COc1ccccc1CNC(C)c1ccc(-n2ccnc2)cc1 (stereo not given) | 32.7%
